What was measured:
[1] = test system: Rat neutrophils; experiment: Elastase production by fMLP stimulation (elastase release inhibition); assay type: cell-based; conditions: elastase release from cytochalasin B-primed rat neutrophils, fMLP 1 μM, 10 minutes preincubation
Description: Test for Elastase Production by fMLP (N-formyl-Met-Leu-Phe)Stimulation
Rat neutrophils preparation was obtained 15-18 hours after intraperitoneal injection of a 1% sterile casein solution in saline (120 mL/kg). Cells were harvested by peritoneal lavage after the decapitation. The lavage fluid was ice-cold PBS (Phosphate-Buffered Saline). Peritoneal exudates were pooled, centrifuged and suspended in HBSS (Hanks' Balanced Salt Solution) at 1×10^7 cells/mL. Cytochalasin B (final concentration: 5 μg/mL) were added to prime the cells. The cells were added into a 96-well culture plate (190 μL/well) and then the compounds of the present invention at various concentrations (10^−7 to 3×10^−5 M) were added and incubated at 37° C. in an atmosphere of 5% CO2 in air. […]
Elastase activity in the incubated supernatant was measured using a specific elastase substrate, N-succinyl-L-alanyl-L-alanyl-L-proline-valine-MCA (Peptide Institue, Inc., Osaka), 0.12 mM in 50 mM Tris-HCl (pH 8.0). […]
Elastase release-inhibiting activity (inhibition ratio) was calculated according to the following equation: Inhibition ratio (%) […]×100 wherein A stands for a fluorescence intensity when fMLP (1 μM) was added; B stands for a fluorescence intensity when fMLP (1 μM) and the present compound were added; and C stands for a fluorescence intensity when fMLP (1 μM) was not added. […]

[2] = test system: rat t-MCAo model; experiment: Infarct volume in rat transient MCA occlusion (t-MCAo) model; assay type: in vivo, Wistar rats; conditions: 0.1 mg/kg/min, intravenous 1 hour infusion immediately after reperfusion; 71 hrs after reperfusion; vs vehicle-treated group, p<0.05 Dunnett's test
Description: FIG. 1 represents an effect of compound 33 on infarct volume in rat t-MCAo model.
The infract volumes of total (open column), cortex (closed column) and subcortex (hatched column) were determined 71 hrs after reperfusion. Data are presented as mean±SEM. *p<0.05 vs vehicle-treated group (Dunnett's test).
Effect on the Infarct Volume in Rat Transient MCA Occlusion (t-MCAo) Model.
Adult male Wistar rats (200-250 g) were anesthetized with 2% halothane in air. The right internal carotid artery (ICA) was carefully dissected. A silicon-coated suture (18 mm-long) was inserted into the ICA. Body temperature was maintained at 37° C. with a heating pad. […] After 1 hour of MCA occlusion, the thread was removed to allow reperfusion of the ischemic area. Rats were received intravenously 1 hour-infusion of vehicle (10% of HP-β-CD) or compound 33 dissolved in vehicle immediately after reperfusion.
To measure infarct volume, rats were killed at 71 hours of reperfusion. Brains were perfused transcardially with physiological saline, and removed from skulls, cut into 2-mm coronal sections. The slices were immersed in 2% triphenyltetrazolium chloride (TTC) solution at 37° C. for 30 minutes. All values were presented as mean±SEM. For statistical analyses, Dunnett's multiple-range test was used.

| Compound | IC50 [1] [µM] | cortex infarct volume [2] | total infarct volume [2] | IC50 ([1]; Neutrophil) [µM] |
| --- | --- | --- | --- | --- |
| CCCC[C@@H](O)/C=C\CCCCCCC/C=C\CCCS(=O)(=O)O [Compound 23, Sodium (R)-(4Z, 13Z)-15-hydroxynonadeca-1,13-diene-1-sulfonate] | 9.67 | – | – | – |
| CCCC[C@@H](O)/C=C\CCCCCCCCCCCCS(=O)(=O)[O-].[Na+] [Compound 33, Sodium (R)-(Z)-15-hydroxynonadec-13-ene-1-sulfonate] | – | significantly reduced | significantly reduced | 15 |

From patent publication US20050020680A1, “Hydroxyfattysulfonic acid analogs” (priority 2001, published 2005)
